Source: article PMC9873282, “Design, synthesis and evaluation of quinoline-O-carbamate derivatives as multifunctional agents for the treatment of Alzheimer’s disease” (Journal of Enzyme Inhibition and Medicinal Chemistry, 2023)

Columns and labels:
Rat plasma stability = settings: after 3 h incubation
Method: (§3) • 2.The stability of 3f was performed in rat liver microsomes. The rat liver microsomes was purchased from Dalian Meilun Biotechnology Co., Ltd, DaLian, China. […] Solution B (25 mL) contained G-6-P-DH (1000 U), Na-Citrate2 (200 mg), and H2O was used as a solvent. NADPH solution (1 mM) was composed by solution A and solution B (v/v = 5:1). […] The reaction was started by the addition of NADPH. The total mixture (200 µL) was incubated at 37 °C. Cold methanol (600 µL) was added at 0, 5, 15, 20, 30, 45 and 60 min, respectively, to stop the reaction. Samples were centrifuged at 13000 rpm for 10 min at 4 °C, and 100 µL supernatant was removed and analysed by UPLC-MS/MS. The stability results were presented as % remaining vs. time. The experiments were conducted in triplicate. • 3.The stability of 3f was performed in rat plasma. […] The supernatant was dried and redissolved in 100 µL methanol. After centrifugation, the supernatant was analysed by UPLC-MS/MS. The stability data were presented as remaining percentage vs time.

IL-1β = IL-1β production in LPS-stimulated BV-2 cells (ELISA); format: cell-based; settings: 1 µg/mL LPS 24 h
Method: (§1) Firstly, the cytotoxicity of compounds 3a, 3c, 3e, 3f, 3k, 3m and 3n were tested using CCK8 assay.
(§2) BV-2 cells (2 × 10^5 cells/well) were seeded in a 24-well cell culture plates. The cells were divided into blank control group, model group (1 µg/mL LPS), LPS + 2 µM compound group, LPS + 1 µM compound group. Each drug group was pre-treated with corresponding concentration of drug solution for 8 h. After 8 h, the culture medium was aspirated out. Except for the blank control group, which was added with DMEM medium, the other groups were stimulated with 1 µg/mL LPS for 24 h. Then cell supernatant was aspirated and centrifuged at 3000 rpm for 3 min. The content of NO in cell culture supernatant was determined by Griess method, and the levels of cytokines IL-6 and IL-1β in cell culture supernatant were determined by IL-6 ELISA kit and IL-1β ELISA kit, respectively.

zebrafish embryos = assay: Acute toxicity in zebrafish embryos
Method: The survival rate of zebrafish embryos was observed and recorded every 24h, and observation was stopped when zebrafish embryos developed to 120 hpf. […] When the culture was to be 120hpf, photographic observations were made under a body microscope (RM2235; Leica). And the body length, pericardial oedema, swim bladder area, liver area, and liver fluorescence intensity of zebrafish were measured by ImageJ software. • Zebrafish experimental grouping. […] All the data were expressed as mean ± SEM and statistical analysis were performed using GraphPad Prism software. The significance of differences were determined using one-way ANOVA. Data were expressed as mean ± standard deviation, and *p < 0.05 indicates a significant difference.

AChE = AChE activity in AlCl3-induced zebrafish AD model tissue; format: in vivo
[1] = tested on: AlCl3-induced zebrafish AD model; assay: Behavioural assay in AlCl3-induced zebrafish AD model; format: in vivo
BV-2 cells = assay: Cytotoxicity on BV-2 cells (CCK8 assay); format: cell-based; settings: compounds at 2 µM
Method: as §1
BV-2 cells were cultured in DMEM containing 10% foetal bovine serum, 100 U/mL penicillin, 100 U/mL streptomycin, and 1% nonessential amino acid at 37 °C with 5% CO2.
BV-2 cells in logarithmic growth stage were digested and centrifuged, and then resuspended in DMEM medium containing 1% penicillin-streptomycin and 10% foetal bovine serum. The cells was adjusted to 1.2 × 10^4 cells/well, and then seeded evenly in 96-well cell culture plates. The cells were incubated for 36 h at 37 °C with 5% CO2. After incubation, the cells were added to different concentrations (10 and 2 µM) of tested compounds, and incubated for 24 h at 37 °C with 5% CO2. Then, 10 µL CCK-8 solution was added to each well, and incubated for another 1 h at 37 °C with 5% CO2. The OD values were tested at […]. The cell viability (%) = {(ODdrug−ODblank)}/{(ODcontrol−ODblank)} × 100%.

PC12 cells = assay: Cytotoxicity on PC12 cells; format: cell-based; settings: at concentration below 40 µM
Method: The neuroprotective effect of compounds 3a, 3c, 3e, 3f, 3k, 3m, and 3n on Aβ25–35-induced PC12 cells injury were evaluated using CCK-8 assay. […] Furthermore, as shown in Figure 12(B), when PC12 cells were exposed to 25 µM Aβ25-35, the cell viability sharply declined to 57.3% (p < 0.01) compared with untreated group.
The PC12 cells during the logarithmic growth phase were digested and centrifuged with pancreatic enzyme solution, the cells were resuspended by adding the prepared media solution, and piped evenly with a pipette to seed in a 96-well cell culture plate (cell concentration adjusted to 2.0 × 10^4 cell·mL^−1). Each well was added 100 µL complete medium was added to each well and incubated at 37 °C and 5% CO2 for 24 h.

NO = NO release in LPS-stimulated BV-2 cells (Griess method); format: cell-based; settings: 1 µg/mL LPS 24 h
Method: as §1, §2

hAChE = target: T1, hAChE (Homo sapiens, UniProt P22303); assay: hAChE reversibility of inhibition (recovery after dilution); format: biochemical
T1 construct: hAChE, from human erythrocytes AChE; purchased Sigma Aldrich; host or cells: human erythrocytes (natural source)
T1 sequence (P22303 32-617 isoform P22303-2 limits assumed): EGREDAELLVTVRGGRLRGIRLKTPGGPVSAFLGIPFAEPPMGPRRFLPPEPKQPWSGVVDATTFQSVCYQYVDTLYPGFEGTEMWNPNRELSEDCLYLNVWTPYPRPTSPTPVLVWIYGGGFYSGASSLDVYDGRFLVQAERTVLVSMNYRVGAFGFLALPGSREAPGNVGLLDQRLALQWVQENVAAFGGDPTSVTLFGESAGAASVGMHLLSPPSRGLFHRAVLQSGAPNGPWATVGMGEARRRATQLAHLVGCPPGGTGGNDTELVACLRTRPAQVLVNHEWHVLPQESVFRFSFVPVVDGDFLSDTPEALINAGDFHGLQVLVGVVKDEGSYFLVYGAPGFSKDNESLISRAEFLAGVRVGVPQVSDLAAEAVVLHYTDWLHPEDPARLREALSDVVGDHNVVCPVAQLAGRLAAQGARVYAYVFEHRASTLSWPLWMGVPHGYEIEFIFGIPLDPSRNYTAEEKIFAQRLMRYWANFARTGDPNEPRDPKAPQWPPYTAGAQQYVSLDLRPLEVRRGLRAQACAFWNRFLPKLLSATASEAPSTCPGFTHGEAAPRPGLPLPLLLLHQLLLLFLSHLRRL

[2] = Rat liver microsomes stability; settings: after 60 min incubation
Method: as §3

ACh = ACh level in AlCl3-induced zebrafish AD model tissue; format: in vivo
Source text: . After the behavioural experiments, the 168hpf zebrafish were killed and ground, the tissue were used to test the AChE activity and ACh levels. […] .

eqBuChE = target: T2, eqBuChE (Equus caballus, UniProt P81908); assay: biochemical; design: species or system equine
T2 construct: eqBuChE, from equine serum; purchased Sigma Aldrich; host or cells: equine serum (natural source)
T2 sequence (P81908 whole entry): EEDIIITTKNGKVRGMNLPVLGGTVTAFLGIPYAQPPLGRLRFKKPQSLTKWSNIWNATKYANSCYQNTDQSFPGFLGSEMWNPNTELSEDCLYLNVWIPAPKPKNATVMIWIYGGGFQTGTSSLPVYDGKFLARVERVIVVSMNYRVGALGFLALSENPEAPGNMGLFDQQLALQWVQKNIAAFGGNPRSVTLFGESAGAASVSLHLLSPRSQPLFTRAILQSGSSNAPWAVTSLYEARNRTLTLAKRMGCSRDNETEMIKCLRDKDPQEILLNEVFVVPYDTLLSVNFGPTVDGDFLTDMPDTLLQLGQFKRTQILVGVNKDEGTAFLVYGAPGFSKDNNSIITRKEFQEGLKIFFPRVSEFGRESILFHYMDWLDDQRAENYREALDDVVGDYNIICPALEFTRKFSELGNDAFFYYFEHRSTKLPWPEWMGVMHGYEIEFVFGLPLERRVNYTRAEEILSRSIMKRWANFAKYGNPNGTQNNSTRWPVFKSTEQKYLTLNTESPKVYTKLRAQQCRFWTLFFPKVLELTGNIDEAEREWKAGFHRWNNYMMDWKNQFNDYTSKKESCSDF
Method: The inhibitory activities of the synthesised compounds against eeAChE (from electric eel) and eqBuChE (from equine serum) were tested by the modified Ellman’s method[26]^,[27]. […] The determination of AChE and BuChE inhibitory potency of the synthesised compounds were evaluated by Ellman assay, the detailed procedure referred to our previous work[26]^,[27].

IL-6 = IL-6 production in LPS-stimulated BV-2 cells (ELISA); format: cell-based; settings: 1 µM and 2 µM; 1 µg/mL LPS 24 h
Method: as §1, §2

[3] = alternating dark light stimuli, 0.08 µM
[4] = alternating dark light stimuli, 0.16 µM
[5] = alternating dark light stimuli, 0.32 µM

Compound: CCN(CC)C(=O)Oc1cccc2ncccc12 [Compound 3f, Quinolin-5-yl diethylcarbamate]
- remaining amount in rat plasma (Rat plasma stability): 95.5%
- levels of IL-1β compared with model group (IL-1β): significantly decreased
- percentage survival (zebrafish embryos; 40.9 µM, 4 hpf): 100%
- survival (zebrafish embryos; 40.9 µM, 24 hpf): all the zebrafish were dead
- liver florescence area and median fluorescence intensity (zebrafish embryos; 0.65, 1.3 and 2.6 µM): did not produce obvious change
- pericardial oedema/body length (zebrafish embryos; at five concentrations of 3f, 120 hpf): did not produce significant change
- maximum non-lethal concentration (MNLC) (zebrafish embryos; zebrafish, in vivo): 20.5 µM
- AChE activity (AChE; 0.08 µM): 98095.7 nmol/min/g
- AChE activity (AChE; 0.16 µM): 64663.2 nmol/min/g
- AChE activity (AChE; 0.32 µM): 102433.6 nmol/min/g
- total velocity ([1]; 0.16 µM, compared with donepezil): could improve AlCl3-induced zebrafish AD model
- distance moved [1, 3]: 1029.2 cm
- velocity [1, 3]: 17.5 cm/min
- distance moved [1, 4]: 1241.5 cm
- velocity [1, 4]: 22.3 cm/min
- distance moved [1, 5]: 1022.8 cm
- velocity [1, 5]: 17.0 cm/min
- distance moved ([1]; dark environment, 0.08 µM): 607.3 cm
- velocity ([1]; dark environment, 0.08 µM): 21.3 cm/min
- distance moved ([1]; dark environment, 0.16 µM): 709.4 cm
- velocity ([1]; dark environment, 0.16 µM): 24.7 cm/min
- distance moved ([1]; dark environment, 0.32 µM): 521.7 cm
- velocity ([1]; dark environment, 0.32 µM): 17.3 cm/min
- optimal dose ([1]; dyskinesia and reaction capacity, ACh levels): 0.16 µM
- velocity ([1]; light condition, 0.08 µM): 14.7 cm/min
- velocity ([1]; light condition, 0.16 µM): 19.3 cm/min
- velocity ([1]; light condition, 0.32 µM): 17.6 cm/min
- cell viability of BV-2 cells (BV-2 cells): did not show obvious change
- cytotoxicity on PC12 cells (PC12 cells): did not show any cytotoxicity
- release volume of NO (NO): significantly decreased
- reversibility of hAChE inhibition (hAChE): reversible hAChE inhibitor
- hAChE activity restored (hAChE; 0.1 × IC50, at 120 min): 94.7%
- remaining amount in rat liver microsomes [2]: 104.4%
- ACh activity (level) (ACh; 0.08 µM): 16.4 pmol/L
- ACh activity (level) (ACh; 0.16 µM): 18.4 pmol/L
- ACh activity (level) (ACh; 0.32 µM): 15.4 pmol/L
- IC50 (eqBuChE; BuChE from equine serum, read-out: IC50 ± SD eqBuChE): 810 ± 60 nM
- SI = IC50 (AChE)/IC50 (BuChE) (eqBuChE; eeAChE/eqBuChE): 1.6
- levels of IL-6 compared with model group (IL-6): significantly decreased
